Data taken from US11834481B1, “Salty taste enhancing peptide derived from dry-cured ham and preparation method thereof” (Hefei University of Technology, priority 2022, dated 2023).

Test: sensory evaluation of purified components for salty taste enhancing effect
Settings: components purified from Jinhua dry-cured ham crude peptides (Sephadex G-15, DEAE anion column); sensory evaluation with electronic tongue-assisted analysis
Method: The crude polypeptides obtained in S2 were dissolved in pure water, filtered by 0.22 μm of aqueous phase membrane, and then loaded onto a Sephadex G-15 gel filtration column (3.0×200 cm) for purification at 25° C. Specific chromatographic parameters: the sample mass concentration was 40 mg/mL; the injection volume was 200 μL; the eluent was 0.01 M of hydrochloric acid buffer solution at a flow rate of 0.5 mL/min, the primary UV ultraviolet detection wavelength was 214 nm, and the secondary UV ultraviolet detection wavelength was 250 nm. All purified components were subject to a sensory evaluation according to their respective chromatographic peaks. […]

Asp-Leu [Asp-Leu (DL)]
salty taste enhancing effect: optimal salty taste enhancing effect
